Assay results published in patent publication US20030040485A1, “alpha/beta-adrenoceptors blockers and angiotensin converting enzyme inhibitors derived from hydroxyphenyl carboxylic acid and alcohol” (priority 2001, published 2003).

How the values were obtained:
[1] = tested on: β1-adrenoceptor (right atrium); experiment: β1-adrenoceptor antagonism, spontaneously beating right atrium, pA2 vs L-isoproterenol; settings: for β1/β2 Ratio: antilogarithm of difference between mean pA2 of right atrium and trachea; for β1 pA2 value, Right atrium: Schild plot, mean ± SEM of six to eight experiments
Procedure: The spontaneously-beating right atria was clipped on both end by heart shaped clips, where one end was fixed at the bottom of 10 ml of tissue bath made of physiological saline solution, and temperature maintained at 37° C. The other end of the atria was connected to a force transducer, and isometric contractions and beating rate of the right atria were recorded by COULBOURN AT-High-Speed VideoFigure. After the samples were given 250 mg of contractions and reach equilibrium the following experiments were carried out:
(§1) When the spontaneously beating rate of right atria reached a certain stability, cumulative administration of L-isoproterenol from 1×10^−10˜3×10^−10 M caused the heart rate to increase continuously, and a cumulative dose-response curve was obtained. Then the L-isoproterenol was thoroughly washed off with Kreb's solution to recover the right atria's heart rate stability. After the equilibrum was reached again for at least 60 minutes, different concentrations (10^−7, 10^−6, 10^−5 M) of compounds were added. 30 minutes later, cumulative administration of L-isoproterenol from 1×10^−10˜3×10^−10 M were carried out again, and another new cumulative dose-response curve was obtained. Administration of L-isoproterenol started from concentration 1×10^−10 M, and the concentration was raised 0.5 log each time for a total of six times. Cumulative administration interval was when the previous concentration reached its greatest effect, the next concentration would be immediately given. […] In other groups of rats, after separate administration of test compounds, their pA2 values were obtained.
pA2=−Log KB Log(DRADJ−1)=n log[B]−LogKB

[2] = tested on: β2-adrenoceptor (trachea); experiment: β2-adrenoceptor antagonism, trachea, pA2; design: species or system rat; settings: Schild plot, mean ± SEM of six to eight experiments
Procedure: as §1
pA2=−Log KB Log(DRADJ−1)=n log[B]−LogKB

[3] = molecular target: β1-adrenoceptor (left atrium) (Rattus norvegicus, UniProt P18090); experiment: β1-adrenoceptor antagonism, left atrium, pA2; settings: Schild plot, mean ± SEM of six to eight experiments
Chain of β1-adrenoceptor (left atrium) (P18090 whole entry): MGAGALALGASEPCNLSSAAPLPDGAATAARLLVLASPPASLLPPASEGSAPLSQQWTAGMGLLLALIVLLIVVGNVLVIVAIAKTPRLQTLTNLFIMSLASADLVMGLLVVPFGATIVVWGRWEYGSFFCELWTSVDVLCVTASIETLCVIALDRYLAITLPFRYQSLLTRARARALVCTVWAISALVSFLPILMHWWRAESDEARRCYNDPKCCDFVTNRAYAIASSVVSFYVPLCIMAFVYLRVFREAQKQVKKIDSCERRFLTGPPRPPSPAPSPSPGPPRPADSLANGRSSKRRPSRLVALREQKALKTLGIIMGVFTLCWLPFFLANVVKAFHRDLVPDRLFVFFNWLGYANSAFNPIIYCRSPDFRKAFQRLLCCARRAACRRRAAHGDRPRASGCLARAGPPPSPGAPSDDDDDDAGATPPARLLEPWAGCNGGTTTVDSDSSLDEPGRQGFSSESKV

[4] = tested on: blood pressure of normotensive male Wistar rats; experiment: Heart rate and blood pressure in living rat (i.v., anaesthetized); type: in vivo; settings: maximal decrease, 2 mg/kg i.v.
Text: Normotensive Male Wistar rats (NTRs), weighing 200˜300 g were abdominal anaesthetized with pentobarbital sodium. Tracheal was cannulated to maintain normal respiration. Polyethylene tube was inserted into the left femoral vein to facilitate drug administration. A 3-way stopcock was used, with one end comnected to a syringe for drug injection, while the other end was connected to the syringe filled with physiological saline. The latter was used to prevent residual drugs in the polyethylene tube after injection, which would affect experimental accuracy.
The right femoral artery was also inserted with polyethylene, and a 3-way stopcock was used tool, where one end was connected to heparin solution to prevent embolism. The other end was comnected to a Disposable Diaphragm Dome, TA1019, and linked to a pressure transducer (Model P10EZ; Spectramed, Oxnard, Calif., USA). Through an amplifier, a recorder recorded the overall and average arterial pressure; heart rate to evaluate the effect of drug on blood pressure and heart rate. Different concentrations 0.1, 1.0, 2.0, 3.0 mg/kg of test compounds were given to the rats via femoral vein and the differences in the heart rate and blood pressure were compared. Table 2 shown maximal decrease of blood pressure affect of compounds after given 2.0 mg/kg test compounds to the rats.

[5] = molecular target: T1, angiotensin converting enzyme (ACE) (Rattus norvegicus, UniProt P47820); experiment: ACE activity value on tissue (rat lung membrane, Hip-His-Leu, fluorometric); type: biochemical; settings: mean of three samples
T1 construct: Centrifuged 250-300 mg lung tissue; from tissue; host or cells: rat lung membrane fraction
T1 sequence (P47820 36-1313): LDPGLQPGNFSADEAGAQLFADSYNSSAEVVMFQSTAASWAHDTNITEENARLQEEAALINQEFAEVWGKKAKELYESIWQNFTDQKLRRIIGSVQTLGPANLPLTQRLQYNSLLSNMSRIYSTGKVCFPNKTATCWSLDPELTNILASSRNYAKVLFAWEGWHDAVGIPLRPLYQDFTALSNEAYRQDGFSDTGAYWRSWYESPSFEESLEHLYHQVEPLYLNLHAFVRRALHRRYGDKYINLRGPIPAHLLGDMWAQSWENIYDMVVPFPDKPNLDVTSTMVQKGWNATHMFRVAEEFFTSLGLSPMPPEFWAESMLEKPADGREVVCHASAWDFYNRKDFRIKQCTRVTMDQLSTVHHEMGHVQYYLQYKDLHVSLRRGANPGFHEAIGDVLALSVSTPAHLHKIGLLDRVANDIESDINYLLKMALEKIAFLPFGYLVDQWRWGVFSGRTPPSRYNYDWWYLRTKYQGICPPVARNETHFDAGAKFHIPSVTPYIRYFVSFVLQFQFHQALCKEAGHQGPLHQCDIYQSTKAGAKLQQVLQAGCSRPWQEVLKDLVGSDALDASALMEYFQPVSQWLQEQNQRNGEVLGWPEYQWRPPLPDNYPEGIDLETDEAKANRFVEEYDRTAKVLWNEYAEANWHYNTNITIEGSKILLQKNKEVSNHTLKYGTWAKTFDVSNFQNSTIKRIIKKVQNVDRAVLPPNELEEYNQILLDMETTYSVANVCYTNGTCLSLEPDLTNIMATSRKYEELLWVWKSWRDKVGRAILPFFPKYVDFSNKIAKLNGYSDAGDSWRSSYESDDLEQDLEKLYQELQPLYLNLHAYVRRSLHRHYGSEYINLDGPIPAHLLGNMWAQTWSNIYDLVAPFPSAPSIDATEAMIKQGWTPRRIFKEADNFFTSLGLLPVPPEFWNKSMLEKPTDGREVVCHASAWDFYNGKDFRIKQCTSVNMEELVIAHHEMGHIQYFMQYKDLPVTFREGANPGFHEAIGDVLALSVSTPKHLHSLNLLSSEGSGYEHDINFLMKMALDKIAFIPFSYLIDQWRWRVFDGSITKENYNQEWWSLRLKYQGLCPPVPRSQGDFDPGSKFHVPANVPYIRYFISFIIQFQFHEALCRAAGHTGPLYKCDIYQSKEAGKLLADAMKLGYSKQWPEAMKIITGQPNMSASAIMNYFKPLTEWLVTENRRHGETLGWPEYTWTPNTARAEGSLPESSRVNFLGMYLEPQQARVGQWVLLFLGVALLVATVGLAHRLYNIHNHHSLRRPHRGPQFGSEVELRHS
Procedure: Centrifuged 250-300 mg lung tissue, 3 ml extracted liquid (10 mmol/L HEPES, 125 mmol/L NaCl, pH7.4) under 12000 g for 20 minutes at 4° C. by Teflon-glass homogenizer, the cell membrane was obtained. The 3 ml homogenized liquid was added into twice, before and after centrifuged. Then the Lowry's method was adopted to determine the protein content in the membrane. Mixing 15 minute of liquid and 30 mmol/L Hip-His-Leu solution at 37° C. Fluorometric was used to determine the Hippurate content. test compounds (10^−8M, 10^−7M, 10^−6M) dissolved in PBS normal saline and used as control group. Then ACE activity inhibition rate was determined.

[6] = molecular target: T2, angiotensin converting enzyme (ACE) (Rattus norvegicus, UniProt P47820); experiment: ACE inhibitory activity in rat serum (Hycor kit, [3H]-hippuryl-glycyl-glycine); type: biochemical; settings: mean of three samples
T2 construct: from tissue; host or cells: rat serum
T2 sequence (P47820 36-1238 limits assumed): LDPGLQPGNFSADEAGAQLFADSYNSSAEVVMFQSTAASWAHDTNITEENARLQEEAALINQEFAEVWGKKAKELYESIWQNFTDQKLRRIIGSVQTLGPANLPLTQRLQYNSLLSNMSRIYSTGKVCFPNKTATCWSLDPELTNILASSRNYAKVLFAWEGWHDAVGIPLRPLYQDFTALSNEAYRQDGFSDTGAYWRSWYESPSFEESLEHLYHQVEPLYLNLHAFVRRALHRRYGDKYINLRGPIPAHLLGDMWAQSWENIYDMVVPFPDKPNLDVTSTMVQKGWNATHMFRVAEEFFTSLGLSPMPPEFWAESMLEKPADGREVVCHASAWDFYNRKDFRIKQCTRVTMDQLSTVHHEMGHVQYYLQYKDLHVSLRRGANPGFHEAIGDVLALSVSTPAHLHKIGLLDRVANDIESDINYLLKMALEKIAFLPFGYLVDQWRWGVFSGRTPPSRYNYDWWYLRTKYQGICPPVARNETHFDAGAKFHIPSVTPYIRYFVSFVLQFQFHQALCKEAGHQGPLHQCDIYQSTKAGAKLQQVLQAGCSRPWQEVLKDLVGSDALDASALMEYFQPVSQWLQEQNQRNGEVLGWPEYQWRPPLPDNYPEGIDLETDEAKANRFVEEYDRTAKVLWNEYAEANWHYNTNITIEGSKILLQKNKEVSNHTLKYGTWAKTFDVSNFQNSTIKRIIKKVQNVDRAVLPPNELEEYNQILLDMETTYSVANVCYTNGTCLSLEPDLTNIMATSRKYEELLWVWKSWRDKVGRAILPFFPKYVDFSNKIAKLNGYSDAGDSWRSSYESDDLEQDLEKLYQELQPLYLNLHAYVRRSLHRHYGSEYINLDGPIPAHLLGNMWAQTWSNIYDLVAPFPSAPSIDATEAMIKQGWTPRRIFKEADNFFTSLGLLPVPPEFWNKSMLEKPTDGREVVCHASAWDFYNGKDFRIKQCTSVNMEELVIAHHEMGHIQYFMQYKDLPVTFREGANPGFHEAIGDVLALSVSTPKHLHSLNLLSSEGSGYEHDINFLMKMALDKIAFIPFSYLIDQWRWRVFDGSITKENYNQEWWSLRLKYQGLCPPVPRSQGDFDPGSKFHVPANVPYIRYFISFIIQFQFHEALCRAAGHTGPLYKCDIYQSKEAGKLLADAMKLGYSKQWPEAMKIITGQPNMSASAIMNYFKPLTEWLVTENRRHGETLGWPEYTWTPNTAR
Procedure: ACE value in serum was determined by Hycor kit, rat serum were cultured in 37° C. of [^3H]-hippuryl-glycyl-glycine for 60 minutes. While [^3H]-hippuryl-glycyl-glycine contains three peptide. [^3H] hippuric acid was obtained when extracted of culture solution with ethyl acetate, the content be determined by spectrophotometer. The content in serum sample was as the control group after it was added with 10^−8M, 10^−7M, 10^−6M compounds, then dissolved in PBS.

[7] = tested on: α1-adrenoceptor (aorta); experiment: α-adrenoceptor antagonism, isolated rat aorta, pA2 vs norepinephrine; design: species or system Wistar rat; settings: Schild plot, mean ± SEM of six to eight experiments
Procedure: Vascular α-adrenoceptor blocking activity was evaluated in the Wistar rat aorta preparation. Isolated rat aorta preparations were mounted in organ bath and suspended in Krebs solution at 37° C. […] or 75 mM KCl was added to the bath medium after a control concentration-response curve to norepinephrine had been obtained. The tissue was exposed to test compounds for 30 min before rechallenging with norepinephrine. Inhibitions were expressed as percentages of the maximum contraction obtained by the challenge of the tissues with norepinephrine. The 70 mM NaCl on 75 mM KCl solution may to replace with equimolar KCl, if necessary.
The methods published by Huang Y C. et. al. in J Cardiovasc Pharmacol.34, pp.10-20 (1999) and Drug Devel Res. 47, 77-89 (1999). Through referenced and modified method to evaluate, test compounds whether have α1-adrenergic and sertoninergic effect.
Isolated Wistar rat aorta preparations were mounted in organ bath and suspended in Krebs solution (NaCl, 118 mM, KCl, 4.8 mM; CaCl,2.5 mM; MgSO4,1.2 mM; K2PO4,1.2 Mm; […] Mm; glucose, 11 mM) at 37° C. under 1 g resting tension.
Upon balancing for 60 minutes, 10^−10-10^−4 M norepinephrine is administered directly from low concentration to high using 0.5 log unit to gradually increase until the maximum reaction is reached, and this act as the control unit. Then different concentrations of the synthetic testing compounds, 10^−7 M, 10^−6 M, or 10^−5M, are used, and upon 30 minutes of reaction, norepinephrine is used again to complete the cumulative dose. The EC50 value of blocking […] may be obtained from observation of the suppressing effects caused by different concentrations of the synthetic testing compound.
The equation is as follows: […]

β1 pA2 value, Left atrium [3]	inhibition at 1 µM ([5]; 10^−6M, read-out: Inhibitory activity of ACE, In Rat lung) [%]	inhibition at 0.1 µM ([5]; 10^−7M, read-out: Inhibitory activity of ACE, In Rat lung) [%]	Inhibitory activity of ACE, In Rat lung ([5]; 10^−8M) [%]	inhibition at 1 µM ([6]; 10^−6M) [%]	inhibition at 0.1 µM ([6]; 10^−7M) [%]	inhibition at 0.01 µM ([6]; 10^−8M) [%]	Compound	β1/β2 Ratio [1]	β1 pA2 value, Right atrium [1]	β2 pA2 value, Trachea [2]	Decrease of blood pressure [4] [mmHg]	α1 pA2 value, Aorta [7]	Kb [3] [nM]
6.92	–	–	–	–	–	–	1-[(4 -Propenoic acid ethyl ester)phenoxy-3-amino]-propanol [compound 1]	2.1	6.83	6.43	60 ± 4.7	–	–
–	98	93	51	99	94	54	CCOC(=O)[C@H](CCc1ccccc1)N[C@@H](C)C(=O)N1CCC[C@H]1C(=O)O [Enalapril, reference compound]	–	–	–	–	–	–
6.84	–	–	–	–	–	–	COc1cc(CO)ccc1OCC(O)CNC(C)(C)C (centres unmarked) [compound 2, Vanynolol]	2.3	6.67	6.61	72 ± 2.5	7.23	–
6.76	–	–	–	–	–	–	COc1ccccc1OCCNCC(O)COc1ccc(CO)cc1OC (centres unmarked) [compound 4, Vanydilol]	1.6	6.72	6.69	83 ± 9.1	7.89	–

The next lines start with the compound.

Compound	β1 pA2 value, Left atrium [3]	inhibition at 1 µM ([5]; 10^−6M, read-out: Inhibitory activity of ACE, In Rat lung) [%]	inhibition at 0.1 µM ([5]; 10^−7M, read-out: Inhibitory activity of ACE, In Rat lung) [%]	Inhibitory activity of ACE, In Rat lung ([5]; 10^−8M) [%]	inhibition at 1 µM ([6]; 10^−6M) [%]	inhibition at 0.1 µM ([6]; 10^−7M) [%]	inhibition at 0.01 µM ([6]; 10^−8M) [%]	β1/β2 Ratio [1]	β1 pA2 value, Right atrium [1]	β2 pA2 value, Trachea [2]	Decrease of blood pressure [4] [mmHg]	α1 pA2 value, Aorta [7]	Kb [3] [nM]
CC(C)NCC(O)COc1ccc(CC(N)=O)cc1 (centres unmarked) [atenolol, reference compound]	–	–	–	–	–	–	–	–	7.34	5.81	–	<5.00	–
CCOC(=O)CCc1ccc(OCC(O)CNCCOc2ccccc2OC)cc1 (centres unmarked) [compound 3, Propiodilol]	6.78	–	–	–	–	–	–	1.9	6.74	6.71	56 ± 3.8	–	–
CC(CCc1ccccc1)NCC(O)c1ccc(O)c(C(N)=O)c1 (centres unmarked) [labetalol, reference compound]	–	–	–	–	–	–	–	2.3	7.91	7.54	–	6.87	28.8
CC(C)NCC(O)COc1cccc2ccccc12 (centres unmarked) [propranolol, reference compound]	–	–	–	–	–	–	–	–	–	8.07	–	<5.00	–
